Measured values from patent US6406856B1, “Biosensor” (Aberdeen University, priority 1998, dated 2002).

How the values were obtained:
[1] = system: S. cerevisiae pPLUCΔP biosensor; experiment: S. cerevisiae pPLUCΔP biosensor luminescence toxicity assay; conditions: for detection of toxic substance by change in luminescence: 10 min exposure, toxicant at pH 5.5, FIGS. 5 and 6
Experimental: In vivo luciferase activity assays using S. cerevisiae require acidification to allow the substrate for the light reaction (luciferin) to freely enter intact cells. Therefore, a two-step assay procedure was designed to incorporate separate toxicity analysis without pH adjustment and subsequent acidification for luminescence quantification. In preparation for the assay, S. cerevisiae cells were harvested at peak luminescence (around 3 to 4×10^8 cells/ml), centrifuged at 700 g (3000 rpm) and washed twice in 5 mM KCl; keeping the original volume constant for the first wash, but halved for second wash (allowing for modified dilution in assay). The first step (exposure), 50 μl of washed S. cerevisiae cells are added to a 450 μl sample (pH generally not important). In an alternative procedure the S. cerevisiae can also be resuspended in water rather than in 5 mM Kcl. The second step (acificiation), 500 μl citrate phosphate buffer (pH2.5), also containing the luciferan (0.1 mM final concentration in 1 ml sample), are added to make up 1 ml total volume for subsequent luminescence quantification. The exposure time is generally 10 minutes, but this can be lengthened or shortened depending on assay requirements (e.g. FIGS. 10a, 10b and 11). The assay allows for the full pH durability of S. cerevisiae to be exploited as prior pH adjustment of samples is not required. Luminescence of the sample containing cuvettes are compared to a blank containing diluent(s) used in the assay. This blank defines 100% luminescence.
Dilutions were then made of the stock solutions using deionised water adjusted to pH5.5, as above. The cells were harvested at peak luminescence, centrifuged at 700 g and washed twice in 5 M KCl; keeping the original volume constant. The toxicant (450 μl) was added to each cuvette. The final volume was then made up to 500 μl using 3 to 4×10^7 cells. After 10 min, 500 μl of citrate phosphate buffer (pH 2.5) containing 5 μl of 20 mM luciferin was added to each cuvette and the bioluminescence was monitored.

[2] = system: dividing LucΔ S. cerevisiae strain cells; experiment: Dividing cell assay, luciferase activity, 96-well plates; type: cell-based, Saccharomyces cerevisiae; conditions: dilutions in 4.5% ethanol, 1x SC (-ura), exposure 3, 5, 7, 9 h
Experimental: (§1) The following procedure was designed to monitor the effect of increasing the exposure time up to 9 hours and to determine the different responses of dividing and non-dividing biosensor cells to the presence of DNA-damaging agents. For assay preparation, the diluent used was ethanol at 4.5% final concentration. All ethidium bromide dilution standards were prepared in glassware. […] The black 96-well plates were covered with a plate sealer and incubated at 30° C. before and between readings. […] Additional of 100 μl citrate phosphate buffer (pH 2.5), containing 0.2 mM luciferin, was performed at each time point before luminescence quantification in a Lucy Anthos 1 luminometer using the Stingray (v2.0b31) software package. Following luminescence quantification 100 μl was removed from the blank well in the dividing assays for OD600 measurements and cell counts. […]
Thus in FIG. 13, the effect of ethidium bromide on dividing cells was measured by recording luciferase activity from cells in wells containing ethidium bromide dilutions prepared in 4.5% ethanol. […]

[3] = system: non-dividing LucΔ S. cerevisiae strain cells; experiment: Non-dividing cell assay, light output, 96-well plates; type: cell-based, Saccharomyces cerevisiae; conditions: dilutions in 4.5% ethanol, cells in ddH2O, exposure 3, 5, 7, 9 h
Experimental: as §1
In FIG. 14, the effect of ethidium bromide on non-dividing cells was measured by recording the light output from cells in wells containing ethidium bromide dilutions prepared in 4.5% ethanol. […]

SMILES	detection of toxic substance by change in luminescence [1]	detection of copper after 48 hours growth of the biosensor ([1]; 10 min copper exposure, sensor cells used after 48 hours, FIG. 11)	effect on dividing cells (luciferase activity) [2]	effect on non-dividing cells (light output) [3]
Oc1cc(Cl)cc(Cl)c1 [3,5-dichlorophenol]	can detect	–	–	–
[Cu] [copper]	can detect	still actively detecting	–	–
CC[n+]1c(-c2ccccc2)c2cc(N)ccc2c2ccc(N)cc21 [ethidium bromide]	–	–	clear decrease in cell division	no clear toxic effect
